{"source": "paper PMC4224963", "about": "(ChemMedChem, 2014)", "key": {"[1]": {"target": "T1, human NAAA (Homo sapiens, UniProt Q02083)", "T1 sequence (Q02083 126-359 limits assumed)": "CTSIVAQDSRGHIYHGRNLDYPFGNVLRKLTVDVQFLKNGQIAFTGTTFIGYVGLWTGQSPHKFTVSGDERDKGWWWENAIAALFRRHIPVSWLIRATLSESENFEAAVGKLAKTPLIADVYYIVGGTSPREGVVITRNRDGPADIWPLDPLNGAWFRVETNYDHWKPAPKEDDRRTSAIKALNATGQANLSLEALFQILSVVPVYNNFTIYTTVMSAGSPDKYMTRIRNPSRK", "T1 sequence (Q02083 29-125 limits assumed)": "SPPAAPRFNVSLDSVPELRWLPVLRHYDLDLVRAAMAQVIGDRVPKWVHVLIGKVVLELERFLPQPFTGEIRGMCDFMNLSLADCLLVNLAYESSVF", "assay": "Fluorogenic h-NAAA assay", "assay_type": "biochemical"}, "[2]": {"system": "rat-NAAA (r-NAAA)", "conditions": "read-out: r-NAAA IC50; ref 19a, 19c, 19d, 19f; cited from earlier work"}, "[3]": {"target": "T2, human NAAA (Homo sapiens, UniProt Q02083)", "T2 sequence (Q02083 29-359)": "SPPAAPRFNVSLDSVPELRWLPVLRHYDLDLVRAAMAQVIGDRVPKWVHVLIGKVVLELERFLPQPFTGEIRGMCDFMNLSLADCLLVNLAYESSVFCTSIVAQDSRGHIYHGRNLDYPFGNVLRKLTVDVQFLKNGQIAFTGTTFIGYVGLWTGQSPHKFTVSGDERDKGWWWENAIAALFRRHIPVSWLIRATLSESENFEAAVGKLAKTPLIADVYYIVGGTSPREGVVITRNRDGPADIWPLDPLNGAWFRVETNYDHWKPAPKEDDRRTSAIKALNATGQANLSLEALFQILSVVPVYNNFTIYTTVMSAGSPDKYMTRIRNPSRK", "assay": "h-NAAA inhibition, UPLC-MS-based assay", "assay_type": "biochemical", "conditions": "for IC50: h–NAAA IC50 (μM) ± SD, LC/MS method, mean of three or more determinations"}, "[4]": {"target": "T3, human AC (Homo sapiens, UniProt Q13510)", "T3 sequence (Q13510 22-395)": "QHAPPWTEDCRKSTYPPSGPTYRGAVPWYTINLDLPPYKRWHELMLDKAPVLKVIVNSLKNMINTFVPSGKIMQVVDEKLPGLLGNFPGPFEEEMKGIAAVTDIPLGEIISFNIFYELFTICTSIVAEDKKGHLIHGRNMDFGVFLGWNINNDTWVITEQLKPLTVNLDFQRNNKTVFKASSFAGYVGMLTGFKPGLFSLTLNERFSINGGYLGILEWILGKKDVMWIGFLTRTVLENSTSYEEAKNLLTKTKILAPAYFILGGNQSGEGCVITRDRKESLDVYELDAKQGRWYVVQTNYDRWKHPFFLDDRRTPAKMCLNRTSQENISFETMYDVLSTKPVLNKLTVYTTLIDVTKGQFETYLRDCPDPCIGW", "assay": "h-AC inhibition, UPLC-MS-based assay", "assay_type": "biochemical", "conditions": "for IC50: h–AC IC50 (μM) ± SD, LC/MS method, mean of three or more determinations"}, "[5]": {"target": "T4, human FAAH (Homo sapiens, UniProt O00519)", "T4 sequence (O00519 1-579)": "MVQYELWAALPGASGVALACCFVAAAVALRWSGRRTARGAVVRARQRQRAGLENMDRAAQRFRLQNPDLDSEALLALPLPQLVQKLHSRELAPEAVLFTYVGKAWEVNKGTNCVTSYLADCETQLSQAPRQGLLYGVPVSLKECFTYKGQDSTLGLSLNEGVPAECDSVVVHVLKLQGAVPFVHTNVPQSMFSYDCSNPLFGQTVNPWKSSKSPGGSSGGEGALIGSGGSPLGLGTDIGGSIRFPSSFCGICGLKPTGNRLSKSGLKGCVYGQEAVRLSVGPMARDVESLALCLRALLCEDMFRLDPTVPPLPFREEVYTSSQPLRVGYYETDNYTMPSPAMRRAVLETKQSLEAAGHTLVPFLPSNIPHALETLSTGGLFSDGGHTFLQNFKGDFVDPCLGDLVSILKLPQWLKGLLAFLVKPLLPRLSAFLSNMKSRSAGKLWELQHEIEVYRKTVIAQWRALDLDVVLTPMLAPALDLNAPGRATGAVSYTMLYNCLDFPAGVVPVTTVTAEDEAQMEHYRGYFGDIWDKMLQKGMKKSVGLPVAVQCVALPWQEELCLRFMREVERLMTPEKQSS", "assay": "h-FAAH inhibition", "assay_type": "biochemical", "conditions": "read-out: h–FAAH (% Inhib)"}, "[6]": {"assay": "In vitro mouse plasma stability", "assay_type": "in vitro ADME"}, "[7]": {"assay": "In vitro rat plasma stability", "assay_type": "in vitro ADME"}, "[8]": {"assay": "Plasma pharmacokinetics in rats after IV or oral dosing", "assay_type": "in vivo", "conditions": "rat"}}}
{"smiles": "O=C(CCCCCCc1ccccc1)N[C@H]1CNC1=O", "note": "[Compound 11e, 7–Phenyl–N–[(S)–2–oxoazetidin–3–yl]–heptanamide]", "values": [{"measurement": "IC50", "setting": "[1]", "result": "0.6 ± 0.17", "unit": "µM"}]}
{"smiles": "O=C(CCCc1ccccc1)N[C@H]1CNC1=O", "note": "[Compound 11b, N–[(S)–2-Oxoazetidin–3–yl]–4–phenyl–butanamide]", "values": [{"measurement": "IC50", "setting": "[1]", "result": "73.4 ± 10.7", "unit": "µM"}]}
{"smiles": "CCCCCCCNC(=O)N[C@H]1CNC1=O", "note": "[Compound 33, 1–Heptyl–3–[(S)–2–oxoazetidin–3–yl]–urea]", "values": [{"measurement": "IC50", "setting": "[1]", "result": "5.76 ± 0.9", "unit": "µM"}]}
{"smiles": "CCCCCCCC(=O)N[C@H]1CNC1=O", "note": "[Compound 11g, N–[(S)–2–Oxoazetidin–3–yl]–octanamide]", "values": [{"measurement": "IC50", "setting": "[1]", "result": "1.91 ± 0.28", "unit": "µM"}]}
{"smiles": "O=C(CCCCCc1ccccc1)N[C@H]1CNC1=O", "note": "[Compound 11d, N–[(S)–2–Oxoazetidin–3–yl]–6–phenyl–hexanamide]", "values": [{"measurement": "IC50", "setting": "[1]", "result": "12.1 ± 2.18", "unit": "µM"}]}
{"smiles": "C[C@@H]1OC(=O)[C@@H]1NC(=O)OCCCCCc1ccccc1", "note": "[Compound 2, 5–phenylpentyl N–[(2S,3R)–2–methyl–4–oxo–oxetan–3–yl]carbamate, reference compound]", "values": [{"measurement": "IC50", "setting": "[1]", "result": "0.047 ± 0.005", "unit": "µM"}, {"measurement": "IC50", "setting": "[2]", "result": 0.05, "unit": "µM"}]}
{"smiles": "CCCCCCCCC(=O)N[C@H]1CNC1=O", "note": "[Compound 11h, N–[(S)–2–Oxoazetidin–3–yl]–nonanamide]", "values": [{"measurement": "IC50", "setting": "[3]", "result": "0.13 ± 0.03", "unit": "µM"}, {"measurement": "selectivity for NAAA vs. AC", "setting": "[4]; h-AC IC50 / h-NAAA IC50, LC/MS assays", "result": "ca. 19 fold"}, {"measurement": "IC50", "setting": "[4]", "result": "2.53 ± 0.06", "unit": "µM"}, {"measurement": "inhibition at 100 µM", "setting": "[5]", "result": "< 10", "unit": "%"}, {"measurement": "half-life at 2 µM", "setting": "[6]", "result": 1.72, "unit": "h"}, {"measurement": "half-life at […]", "setting": "[7]", "result": "> 2", "unit": "h"}, {"measurement": "AUC", "setting": "[8]; iv, 3 mg/kg", "result": 111, "unit": "ng·h/mL"}, {"measurement": "Cmax", "setting": "[8]; iv, 3 mg/kg", "result": 397, "unit": "ng/mL"}, {"measurement": "Tmax", "setting": "[8]; iv, 3 mg/kg", "result": 4.8, "unit": "min"}, {"measurement": "clearance", "setting": "[8]; iv, 3 mg/kg", "result": 702, "unit": "mL/min/kg"}, {"measurement": "AUC", "setting": "[8]; po, 10 mg/kg", "result": 247, "unit": "ng·h/mL"}, {"measurement": "Cmax", "setting": "[8]; po, 10 mg/kg", "result": 570, "unit": "ng/mL"}]}
{"smiles": "CCCCc1ccc(C(=O)N[C@H]2CNC2=O)cc1", "note": "[Compound 11k, 4–Butyl–N–[(S)–2–oxoazetidin–3–yl]–benzamide]", "values": [{"measurement": "IC50", "setting": "[1]", "result": "13.8 ± 3.41", "unit": "µM"}]}
{"smiles": "O=C(CCc1ccccc1)N[C@H]1COC1=O", "note": "[Compound 1, (S)–N–(2–oxo–3–oxetanyl)–3–phenylpropionamide, reference compound]", "values": [{"measurement": "IC50", "setting": "[1]", "result": 1.29, "unit": "µM"}, {"measurement": "half-life at 2 µM", "setting": "[6]", "result": "< 0.0167", "unit": "h"}, {"measurement": "IC50", "setting": "[2]", "result": 0.42, "unit": "µM"}]}
{"smiles": "O=C(CCCCc1ccccc1)N[C@H]1CNC1=O", "note": "[Compound 11c, 5–Phenyl–N–[(S)–2–oxoazetidin–3–yl]–pentanamide]", "values": [{"measurement": "IC50", "setting": "[1]", "result": "27.2 ± 1.89", "unit": "µM"}]}
{"smiles": "CCCCCCCCC(=O)N[C@@H]1CNC1=O", "note": "[Compound 12h, N–[(R)–2–Oxoazetidin–3–yl]–nonanamide]", "values": [{"measurement": "IC50", "setting": "[1]", "result": "74.5 ± 9.08", "unit": "µM"}, {"measurement": "loss/drop in potency (h-NAAA) compared to 11h", "setting": "[1]; fluorogenic assay", "result": "> 200", "unit": "fold"}, {"measurement": "IC50", "setting": "[3]", "result": 45.5, "unit": "µM"}, {"measurement": "IC50", "setting": "[4]", "result": 27.8, "unit": "µM"}, {"measurement": "inhibition at 100 µM", "setting": "[5]", "result": "< 10", "unit": "%"}]}
{"smiles": "CCCCC/C=C/CC(=O)N[C@H]1CNC1=O", "note": "[Compound 11i, (E)–N–[(S)–2–Oxoazetidin–3–yl]–non–3–enamide]", "values": [{"measurement": "IC50", "setting": "[1]", "result": "3.09 ± 0.5", "unit": "µM"}, {"measurement": "loss/drop in potency (h-NAAA) compared to 11h", "setting": "[1]; fluorogenic assay", "result": 10, "unit": "fold"}]}
{"smiles": "CCCCCCC(=O)N[C@H]1CNC1=O", "note": "[Compound 11f, N–[(S)–2–Oxoazetidin–3–yl]–heptanamide]", "values": [{"measurement": "IC50", "setting": "[1]", "result": "27 ± 6.15", "unit": "µM"}, {"measurement": "drop in potency (h-NAAA) compared to 11e", "setting": "[1]; fluorogenic assay", "result": "> 40", "unit": "fold"}]}
{"smiles": "CCCCCCCCCCC(=O)N[C@H]1CNC1=O", "note": "[Compound 11p, N–[(S)–2–Oxoazetidin–3–yl]–undecanamide]", "values": [{"measurement": "increase in potency toward h–NAAA compared to 11h", "setting": "[3]; LC/MS assay", "result": "ca. 2 fold"}, {"measurement": "IC50", "setting": "[3]", "result": "0.056 ± 0.01", "unit": "µM"}, {"measurement": "increase in potency toward h–AC compared to 11h", "setting": "[4]; LC/MS assay", "result": "ca. 7 fold"}, {"measurement": "IC50", "setting": "[4]", "result": "0.33 ± 0.1", "unit": "µM"}, {"measurement": "inhibition at 100 µM", "setting": "[5]", "result": "< 10", "unit": "%"}]}
{"smiles": "O=C(CCc1ccccc1)N[C@H]1CNC1=O", "note": "[Compound 11a, 3–Phenyl–N–[(S)–2-oxoazetidin–3–yl]–propanamide]", "values": [{"measurement": "half-life at 2 µM", "setting": "[6]", "result": "> 2", "unit": "h"}, {"measurement": "half-life at […]", "setting": "[7]", "result": "> 2", "unit": "h"}]}
{"smiles": "CCCCC/C=C\\CC(=O)N[C@H]1CNC1=O", "note": "[Compound 11j, (Z)–N–[(S)–2–Oxoazetidin–3–yl]–non–3–enamide]", "values": [{"measurement": "IC50", "setting": "[1]", "result": "3.9 ± 0.86", "unit": "µM"}, {"measurement": "loss/drop in potency (h-NAAA) compared to 11h", "setting": "[1]; fluorogenic assay", "result": 10, "unit": "fold"}]}
